Experimental findings from ChEMBL document CHEMBL1156598 (J Med Chem, 2008) are described below.

Assay [1] concerns the target Cytochrome P450 3A4 (Homo sapiens, UniProt P08684). The assay is described as follows: Inhibition of recombinant CYP3A4 expressed in baculovirus-infected insect microsomes. In kind it is ADME, Microsome.
Assay [2] concerns the target T1, Cytochrome P450 11B1, mitochondrial (Homo sapiens, UniProt P15538).
T1 sequence (P15538 whole entry): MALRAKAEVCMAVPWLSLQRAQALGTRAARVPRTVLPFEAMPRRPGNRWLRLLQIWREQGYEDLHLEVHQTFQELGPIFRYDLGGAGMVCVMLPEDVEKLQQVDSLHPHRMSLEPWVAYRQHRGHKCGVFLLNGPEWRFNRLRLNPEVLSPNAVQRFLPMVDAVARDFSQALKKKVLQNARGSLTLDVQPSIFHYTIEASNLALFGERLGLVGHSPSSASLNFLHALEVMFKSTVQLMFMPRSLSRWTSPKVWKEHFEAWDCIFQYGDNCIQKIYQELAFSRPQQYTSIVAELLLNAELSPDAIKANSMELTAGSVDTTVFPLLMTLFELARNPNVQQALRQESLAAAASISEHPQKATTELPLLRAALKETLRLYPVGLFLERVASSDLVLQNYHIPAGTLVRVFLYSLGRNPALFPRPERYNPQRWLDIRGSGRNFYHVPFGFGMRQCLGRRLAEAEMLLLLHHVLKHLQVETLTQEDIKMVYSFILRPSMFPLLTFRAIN
The assay is described as follows: Inhibition of human CYP11B1 expressed in hamster V79MZh11B1 cells. Type of assay: cell-based.

The target of assay [3] is T2, Steroid 17-alpha-hydroxylase/17,20 lyase (Homo sapiens, UniProt P05093).
T2 sequence (P05093 whole entry): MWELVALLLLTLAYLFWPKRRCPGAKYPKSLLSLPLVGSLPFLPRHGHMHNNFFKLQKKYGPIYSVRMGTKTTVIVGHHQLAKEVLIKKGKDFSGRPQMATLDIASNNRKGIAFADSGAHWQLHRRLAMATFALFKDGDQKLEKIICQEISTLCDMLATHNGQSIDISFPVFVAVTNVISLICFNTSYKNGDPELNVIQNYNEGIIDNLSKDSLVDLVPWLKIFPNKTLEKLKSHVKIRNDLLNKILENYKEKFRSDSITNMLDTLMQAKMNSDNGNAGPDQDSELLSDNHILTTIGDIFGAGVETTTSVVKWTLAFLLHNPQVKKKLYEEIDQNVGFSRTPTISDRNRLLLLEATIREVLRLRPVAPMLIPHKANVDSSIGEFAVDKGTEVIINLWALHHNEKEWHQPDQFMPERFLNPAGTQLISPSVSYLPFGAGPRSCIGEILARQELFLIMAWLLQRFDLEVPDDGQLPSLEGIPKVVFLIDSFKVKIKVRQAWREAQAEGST
The assay is described as follows: Inhibition of human recombinant CYP17 expressed in Escherichia coli coexpressing NADPH-P450 reductase.

The target in assay [4] is T3, Cytochrome P450 11B2, mitochondrial (Homo sapiens, UniProt P19099).
T3 sequence (P19099 whole entry): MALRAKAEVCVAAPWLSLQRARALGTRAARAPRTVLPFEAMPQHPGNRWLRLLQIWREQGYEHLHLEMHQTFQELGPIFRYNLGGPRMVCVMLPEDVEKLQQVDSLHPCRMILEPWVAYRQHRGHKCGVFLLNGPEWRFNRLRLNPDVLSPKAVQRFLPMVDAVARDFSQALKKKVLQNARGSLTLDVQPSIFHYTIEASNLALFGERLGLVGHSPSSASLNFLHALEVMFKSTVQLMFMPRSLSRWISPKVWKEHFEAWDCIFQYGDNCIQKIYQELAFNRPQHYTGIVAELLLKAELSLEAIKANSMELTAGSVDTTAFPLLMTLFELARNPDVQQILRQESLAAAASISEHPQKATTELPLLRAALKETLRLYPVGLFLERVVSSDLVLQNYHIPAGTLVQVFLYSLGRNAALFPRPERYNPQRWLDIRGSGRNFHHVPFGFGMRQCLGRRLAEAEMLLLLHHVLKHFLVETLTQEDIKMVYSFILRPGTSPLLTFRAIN
The assay is described as follows: Inhibition of human CYP11B2 expressed in hamster V79MZh11B2 cells. Type of assay: cell-based.

Sequence of Cytochrome P450 3A4 (P08684 whole entry): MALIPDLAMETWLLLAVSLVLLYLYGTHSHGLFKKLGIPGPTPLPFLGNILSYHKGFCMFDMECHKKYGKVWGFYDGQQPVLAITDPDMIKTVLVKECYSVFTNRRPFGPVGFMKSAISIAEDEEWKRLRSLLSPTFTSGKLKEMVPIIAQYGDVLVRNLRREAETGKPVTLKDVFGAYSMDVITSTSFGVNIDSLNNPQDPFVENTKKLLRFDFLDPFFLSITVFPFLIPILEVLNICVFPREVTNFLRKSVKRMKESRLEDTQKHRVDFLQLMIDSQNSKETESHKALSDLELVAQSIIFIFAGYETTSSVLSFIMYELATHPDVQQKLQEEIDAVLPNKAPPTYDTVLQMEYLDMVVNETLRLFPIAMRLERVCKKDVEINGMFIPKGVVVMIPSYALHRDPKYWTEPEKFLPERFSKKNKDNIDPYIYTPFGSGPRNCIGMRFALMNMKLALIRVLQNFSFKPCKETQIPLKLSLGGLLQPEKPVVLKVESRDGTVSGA

In the case of `OC1(c2ccncc2)CCCc2cc(-c3ccc(F)c(F)c3)ccc21` (stereo unspecified), in assay [1], the IC50 came to 13800 nM.

`COc1ccc(-c2ccc3c(c2)CCCC3(O)c2ccncc2)cc1F` (stereo unspecified): the IC50 was 686 nM in assay [2], 15200 nM in assay [1], above 5000 nM in assay [3] and 945 nM in assay [4].

As to `Oc1ccc(-c2ccc3c(c2)CCC=C3c2ccncc2)cc1F`, the concentration for half-maximal inhibition (IC50) in assay [2] came out at 2750 nM; in assay [1], 2110 nM; in assay [3], 188 nM; in assay [4] it was 991 nM.

As to `Fc1ccc(-c2ccc3c(c2)CCC3c2cccnc2)cc1` (stereo unspecified), the results for the IC50 in assay [1] and in assay [3] were 1700 nM and above 20000 nM, respectively.

Regarding `Fc1ccc(-c2ccc3c(c2)CCC3c2ccncc2)cc1` (stereo unspecified), the IC50 in assay [2] stood at 1080 nM; in assay [1] it was 1090 nM; in assay [3] it was 233 nM; in assay [4], 543 nM.

As to `Fc1ccc(-c2ccc3c(c2)CCCC3c2ccncc2)cc1` (stereo unspecified), the IC50 in assay [2] was above 5000 nM; in assay [1], 2170 nM; in assay [3] it was 163 nM; in assay [4], 518 nM.

Turning to `Oc1ccc(-c2ccc3c(c2)CCCC3c2ccncc2)cc1F` (stereo unspecified), the half-inhibitory concentration (IC50) amounted to 1370 nM in assay [2], 3390 nM in assay [1], 64 nM in assay [3] and 587 nM in assay [4].

Turning to `COc1ccc(-c2ccc3c(c2)CC=C3c2ccncc2)cc1`, the IC50 in assay [1] turned out to be 2390 nM.

On to `Fc1ccc(-c2ccc3c(c2)CCC=C3c2ccncc2)cc1`, for which, in assay [1], the IC50 was determined as 4200 nM.

Consider `Fc1ccc(-c2ccc3c(c2)CCC=C3c2ccncc2)cc1F`, for which the 50% inhibitory concentration (IC50) was above 20000 nM in assay [2], 3640 nM in assay [1], above 5000 nM in assay [3] and 311 nM in assay [4].

Take `OC1(c2cccnc2)CCc2cc(-c3ccc(F)cc3)ccc21` (stereo unspecified): the IC50 in assay [1] is above 20000 nM.

For `OC1(c2ccncc2)CCc2cc(-c3ccc(F)cc3)ccc21` (stereo unspecified), in assay [1], the IC50 was found to be 3230 nM.

Take `COc1ccc(-c2ccc3c(c2)CCC3(O)c2ccncc2)cc1` (stereo unspecified): the IC50 in assay [1] came to 3290 nM.

Turning to `OC1(c2ccncc2)CCCc2cc(-c3ccc(F)cc3)ccc21` (stereo unspecified), the IC50 came to 1160 nM in assay [2], 8760 nM in assay [1], 587 nM in assay [3] and 840 nM in assay [4].

As to `Fc1ccc(-c2ccc3c(c2)CC=C3c2ccncc2)cc1`, in assay [1], the IC50 turned out to be 159 nM.

On to `Oc1ccc(-c2ccc3c(c2)CCCC3c2ccncc2)cc1O` (stereo unspecified), for which, in assay [1], the IC50 worked out at 632 nM.

Regarding `Fc1ccc(-c2ccc3c(c2)CC=C3c2cccnc2)cc1`, the results for the IC50 in assay [1] and in assay [3] were 6950 nM and 2350 nM, respectively.

As for `Oc1ccc(-c2ccc3c(c2)CCC=C3c2ccncc2)cc1O`, the IC50 in assay [1] worked out at 357 nM.

Regarding `COc1ccc(-c2ccc3c(c2)CCC3(O)c2ccncc2)cc1F` (stereo unspecified), the IC50 in assay [2] was 291 nM; in assay [1], 3360 nM; in assay [3], above 10000 nM; in assay [4], 436 nM.

In assay [4], `C[C@]12CC[C@H](O)CC1=CC[C@@H]1[C@@H]2CC[C@]2(C)C(c3cccnc3)=CC[C@@H]12` [ABIRATERONE] yielded an IC50 of 1750 nM.

By IC50 is commonly meant the point on the concentration scale where inhibition reaches its midpoint.
